Source: patent US20110212235A1, “ANTIMICROBIAL SALT SOLUTIONS FOR CHEESE PROCESSING APPLICATIONS” (priority 2006, published 2011)

Tests used:
[1] = tested on: L. monocytogenes; assay: L. monocytogenes challenge in hot dog plant chill brine at −20° C.; type: cell-based
Description: 1. Inoculate a separate tube containing approximately 10 ml of Brain Heart infusion (BHI) broth with the following L. monocytogenes strains: H2446 (CDC Global Standard), Scott A (serotype 4b), 12243 (serotype 1/2a), and two strains isolated from the environment of a cooked meat and poultry facility, designated WP1, and WP4. Incubate the tubes at least 5 days at 7-10° C.+/−2° C. 2. Assume the growth to be 10^9 cfu/ml. Serially dilute each culture in cold (˜7° C.). Butterfield's Phosphate Buffered Water (PBW) to 10^8 cfu/ml (1:10). Since five cultures of L. monocytogenes are being used as a cocktail, begin the dilution series using […] of each culture added to 99 ml of PBW. 3. Plate (−6, −7, −8) the diluted culture to get the starting count of the inoculum on Modified Oxford medium (MOX) using a thin agar overlay (TAL) technique (overlay with Trypticase Soy Agar [TSA]) to revive injured cells. 4. Add 1 ml of the diluted cocktail to 100 ml of cold test solution. 5. Mix the solutions well. 6. Determine the L. monocytogenes population at time 0 and 4 hours. Plate −1 (0.1 ml on 1 plate), −2, −3, and −4 dilutions using spread plates on MOX TAL with TSA. 7. Incubate the test solutions at test temperature for the duration of the experiment. 8. Incubate the MOX TAL with TSA plates at 20° C.+/−2° C. for 72+/−3 hours. Count representative colonies, which are black, and multiply by the dilution factor. […]

[2] = tested on: L. monocytogenes; assay: L. monocytogenes kill in cold salt/acid/surfactant solutions; type: cell-based
Description: To study chilling brine application of the current embodiment, tests were run on 17% by weight solutions of formulas consisting of between 0.3% and 6.0% citric acid, between 50 and 500 ppm SLS, and between 94% and 99.7% sodium chloride. Test solutions were cooled to −7° C. and inoculated with several strains of L. monocytogenes.
An experiment was run to determine if solutions containing sodium chloride, sodium lauryl sulfate, and various acids would kill L. monocytogenes at cold temperatures. […] A 1.0 ml aliquot of this suspension was added to 100 ml of cold (−7° C.+2° C.) test solution and mixed well, providing an initial inoculum of 10^3 CFU/ml. The test solutions were incubated at −7° C.+/−2° C. for the duration of the experiment. At intervals of 0, 4, and 24 hours the L. monocytogenes populations in the test solutions were determined on Modified Oxford agar (MOX). MOX plates were incubated at 35° C.+/−2° C. for approximately 48 hours. Colonies were then counted and compared to the initial inoculum counts.
Each test solution was a 17% by weight solution of the listed formula prepared in soft water.
In another experiment, 17% by weight solutions of formulas containing various levels of sodium chloride, citric acid, and sodium lauryl sulfate were tested for effectiveness in killing L. monocytogenes at cold temperatures. The same test procedure was used as described above, except test solutions were plated on MOX with a Thin Agar Overlay of TSA (to aid in the recovery of injured cells).
In another experiment, two sets of solutions were tested. The first set (samples 1-12 in Table 10 below) was prepared in hard tap water and contained about 17.0% by mass of the formulation. These samples were inoculated with 10^3 CFU/ml L. monocytogenes by the same procedure as described above. A second set of samples was prepared from brine taken from a ready-to-eat meat processing operation. The recirculated brine had been used to chill packaged meat for one week. After a week of use the brine typically contains various types of aerobic psychotropic and mesophilic bacteria. This experiment was done in order to determine if the additives would kill the microorganisms naturally occurring in actual process brine from a plant. Since the spent chill brine samples already contained NaCl citric acid and/or SLS was added to provide an effective concentration of additive. One set of these samples (samples 13-17) were inoculated with 10^3 L. monocytogenes and the other set (samples 18-22) contained only the naturally occurring organisms in the spent chill brine. […] Other antimicrobials, such as quaternary ammonium compounds can lose significant activity in hard water, often necessitating further additives, such as EDTA as a chelating agent, to maintain antimicrobial activity.
Another set of experiments was done in order to determine the effectiveness of different acids and different types of surfactants in the antimicrobial salt formulations. In one experiment, test solutions containing ˜17% by weight of formulas containing various levels of sodium chloride, 100 ppm sodium lauryl sulfate, and various levels of different acids were tested for effectiveness in killing L. monocytogenes at cold temperatures. The same test procedure was used as described above (test solutions were plated on MOX TAL (Modified Oxford Medium with a Thin Agar Layer) with TSA). The controls were a solution of pure NaCl, a solution of a blend of 100 ppm SLS in NaCl, and a solution of a blend of 0.5% citric acid, 100 ppm SLS, and 99.5% NaCl.

[3] = pH and water activity of test solutions; type: physicochemical
[4] = 17% by weight solution in soft water, −7° C., MOX
[5] = 17% by weight solution, −6.7° C., MOX with thin agar overlay
[6] = 17% by weight solution of the formula in soft water, Table 8

## alcohol ethoxylate
[1]; 12.5 ppm in the hot dog plant brine
  effectiveness at lower concentration: as effective as 50 ppm
[1]; 50 ppm, within 4 hours, −20° C., hot dog plant brine
  kill of L. monocytogenes inoculum: ~5 log
[2]; 4 hours, 17% by weight of formula of 99.7% sodium chloride, 0.3% citric acid, 500 ppm of listed surfactant, cold
  L. monocytogenes, Time 4 Hours: 1 CFU/ml
[2]; 17% by weight of formula of 99.7% sodium chloride, 0.3% citric acid, 500 ppm of listed surfactant, cold
  L. monocytogenes, Time 0: 1080 CFU/ml

## [Cl-].[Na+] [100% NaCl, sodium chloride, reference compound]
[2]; 24, about 17.0% of formulation in hard tap water
  L. monocytogenes, 24: 1100 cfu/ml
[2]; 2 hr, about 17.0% of formulation in hard tap water
  L. monocytogenes, 2 hr: 1100 cfu/ml
[2]; [4]
  L. monocytogenes, 4 hr: 1250 CFU/ml
  L. monocytogenes, 24 hr: 1170 CFU/ml
[2]; [5]
  L. monocytogenes, 4 hr: ~6250 CFU/ml
  L. monocytogenes, 24 hr: 2290 CFU/ml
[2]; 17% by weight solution of the formula in soft water, −7° C., MOX
  L. monocytogenes, Time 0: 1550 CFU/ml
[2]; 17% by weight solution, −6.7° C., MOX with thin agar overlay of TSA
  L. monocytogenes, Time 0: ~7000 CFU/ml
[2]; about 17.0% of formulation in hard tap water (27 gpg), inoculated 10^3 CFU/ml
  L. monocytogenes, Time 0: 760 cfu/ml
[3]; [6]
  Water Activity: 0.88
  pH: 7.88
[3]; 17% by weight solution of the formula, Table 9
  pH: 7.66
